Assay results reported in patent publication US20150147273A1, “RADIOLABELED ANALOG(S) OF COMPOUND 0118 AND USE THEREOF IN CONNECTION WITH PET AND/OR SPECT IMAGING TO DETERMINE WHETHER A PHARMACEUTICAL CONTAINING COMPOUND 0118 IS A CANDIDATE CANCER TREATMENT FOR A PATIENT” (KONINKLIJKE PHILIPS N.V., priority 2012, published 2015).

The compounds below were run on MA148 human ovarian carcinoma cells (assay: [3H]thymidine incorporation cell proliferation assay (FIG. 15)). Conditions: compared with 0118.
Format: cell-based
Excerpt: Evaluation of the anti-angiogenic activity of lower-rim substituted 0118 analogues (compound 4, compound 5) and equatorially substituted 0118 analogues (compound 13, compound 14, compound 18a, compound 18b, compound 18c).

| SMILES | potency of inhibition of MA148 cell proliferation relative to parent compound 0118 |
| --- | --- |
| CCCC1c2cccc(c2OCC(=O)NCCN(C)C)Cc2cccc(c2OCC(=O)NCCN(C)C)Cc2cccc(c2OCC(=O)NCCN(C)C)Cc2cccc1c2OCC(=O)NCCN(C)C [compound 18b, 25,26,27,28-Tetrakis-N—(N,N-dimethyl-2-aminoethyl)carbamoylmethoxy-2-propylcalix[4]arene] | at least three times more potent than 0118 |
| C#CCC1c2cccc(c2OCC(=O)NCCN(C)C)Cc2cccc(c2OCC(=O)NCCN(C)C)Cc2cccc(c2OCC(=O)NCCN(C)C)Cc2cccc1c2OCC(=O)NCCN(C)C [compound 13, 25,26,27,28-Tetrakis-N—(N,N-dimethyl-2-aminoethyl)carbamoylmethoxy-2-(prop-2′-yn-1′-yl)calix[4]arene] | at least three times more potent than 0118 |
| C#CCCOc1c2cccc1Cc1cccc(c1OCC(=O)NCCN(C)C)Cc1cccc(c1OCC(=O)NCCN(C)C)Cc1cccc(c1OCC(=O)NCCN(C)C)C2 [compound 4, 25,26,27-Tris-N—(N,N-dimethyl-2-aminoethyl)carbamoylmethoxy-28-(3′-butynyloxy)calix[4]arene] | at least equipotent |
| CN(C)CCNC(=O)COc1c2cccc1Cc1cccc(c1OCC(=O)NCCN(C)C)Cc1cccc(c1OCC(=O)NCCN(C)C)Cc1cccc(c1OCCc1cn(CCF)nn1)C2 [compound 5, 25,26,27-Tris-N—(N,N-dimethyl-2-aminoethyl)carbamoylmethoxy-28-{2′-[1-(2-fluorethyl)-1H-[1,2,3]triazo-4-yl]ethyloxy}calix[4]arene] | more potent inhibitor of MA148 cell proliferation |
| CN(C)CCNC(=O)COc1c2cccc1Cc1cccc(c1OCC(=O)NCCN(C)C)C(Cc1cn(CCF)nn1)c1cccc(c1OCC(=O)NCCN(C)C)Cc1cccc(c1OCC(=O)NCCN(C)C)C2 [compound 14, 25,26,27,28-Tetrakis-N—(N,N-dimethyl-2-aminoethyl)carbamoylmethoxy-2-{[1-(2-fluorethyl)-1H-[1,2,3]triazo-4-yl]methyl}calix[4]arene] | at least three times more potent than 0118 |

These compounds were tested on endothelial cell proliferation (assay: endothelial cell proliferation assays). Conditions: not given.
Format: cell-based
Excerpt: As an alternative to upper-rim substitution, [^18F]-labeled synthons may also be introduced at the lower rim or at an equatorial position of the calix[4]arene core of compound 0118. […] Based on this knowledge, close mimetics of compound 0118 have been produced, where one of the four lower rim substituents is replaced by a substituent containing an alkyne- or azide-functional group, providing access to [^18F]fluoroalkyltriazole-labeled compound 0118 analogues via Huisgen 1,3-dipolar cycloaddition reaction with the corresponding [^18F]fluoroalkynes and [^18F]fluoroazides, respectively.

| SMILES | anti-angiogenic potency compared with compound 0118 |
| --- | --- |
| CN(C)CCNC(=O)COc1c2cccc1Cc1cccc(c1OCC(=O)NCCN(C)C)Cc1cccc(c1OCC(=O)NCCN(C)C)Cc1cccc(c1OCCc1cn(CCF)nn1)C2 [compound 5, 25,26,27-Tris-N—(N,N-dimethyl-2-aminoethyl)carbamoylmethoxy-28-{2′-[1-(2-fluorethyl)-1H-[1,2,3]triazo-4-yl]ethyloxy}calix[4]arene] | comparable anti-angiogenic potency |
